The target in data set [1] is T1, BEC 1 potassium channel (Homo sapiens, UniProt Q9ULD8).
T1 construct: expressed in transfected cells
T1 sequence (Q9ULD8 1-1083): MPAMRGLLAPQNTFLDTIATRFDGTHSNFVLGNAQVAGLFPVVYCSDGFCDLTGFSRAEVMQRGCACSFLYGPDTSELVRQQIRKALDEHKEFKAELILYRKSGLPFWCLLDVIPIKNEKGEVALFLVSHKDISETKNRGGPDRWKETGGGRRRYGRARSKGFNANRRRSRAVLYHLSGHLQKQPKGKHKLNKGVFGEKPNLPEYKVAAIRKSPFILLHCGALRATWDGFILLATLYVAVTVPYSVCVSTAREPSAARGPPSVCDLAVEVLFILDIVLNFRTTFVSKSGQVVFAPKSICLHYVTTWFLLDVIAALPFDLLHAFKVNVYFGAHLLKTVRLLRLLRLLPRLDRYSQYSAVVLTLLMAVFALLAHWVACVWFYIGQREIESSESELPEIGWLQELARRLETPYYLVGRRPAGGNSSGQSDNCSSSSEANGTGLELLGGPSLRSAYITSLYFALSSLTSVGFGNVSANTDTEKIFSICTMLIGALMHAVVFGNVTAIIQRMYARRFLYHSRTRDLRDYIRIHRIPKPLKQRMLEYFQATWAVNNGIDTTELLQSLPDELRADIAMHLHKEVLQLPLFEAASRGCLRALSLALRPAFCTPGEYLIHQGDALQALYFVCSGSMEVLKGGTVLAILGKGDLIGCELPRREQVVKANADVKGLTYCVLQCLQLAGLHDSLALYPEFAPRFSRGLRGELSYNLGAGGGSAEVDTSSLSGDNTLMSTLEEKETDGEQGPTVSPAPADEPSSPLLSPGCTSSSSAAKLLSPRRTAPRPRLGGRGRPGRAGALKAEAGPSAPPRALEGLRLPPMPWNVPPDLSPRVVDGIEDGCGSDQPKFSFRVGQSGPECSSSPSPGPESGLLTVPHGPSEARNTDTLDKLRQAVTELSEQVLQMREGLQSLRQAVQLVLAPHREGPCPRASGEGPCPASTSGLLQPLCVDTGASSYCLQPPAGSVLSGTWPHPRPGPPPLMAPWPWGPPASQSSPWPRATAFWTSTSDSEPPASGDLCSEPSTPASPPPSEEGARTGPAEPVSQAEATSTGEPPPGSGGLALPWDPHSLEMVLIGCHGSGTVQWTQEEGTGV
Kind of data set: BEC 1 inhibitory activity using released amount of 86Rb ions from BEC 1-expressing cells. The following applies: 86Rb ion release, BEC 1-stably expressing CHO (dhfr-deficient) cell, 100 mM KCl stimulation; read-out: BEC1 IC50. It is filed as cell-based. On the procedure:
In general, the potassium channel can pass Rb^+ ion similar to K^+ ion, so that the channel activity can be measured using release of a radioisotope ^86Rb^+ as a marker. By incubating cells expressing the novel potassium channel protein together with ^86RbCl (e.g., 18 hr, 37° C.), ^86Rb^+ can be incorporated into the cells. The cells are washed with a low K^+ concentration physiological saline (e.g., 4.5 mM K^+) and then suspended in the same solution. When a high K^+ concentration solution (e.g., 100 mM in final concentration) is added to the cell suspension, membrane potential of the cell is depolarized and the potassium channel therefore is activated. As a result, the intracellular ^86Rb^+ is released into the extracellular part, thus radioactivity of the extracellular solution can be used as a marker of the channel activity. It is possible to screen a compound and a peptide capable of modifying activity of the BEC 1 potassium channel protein, by comparing the radioactivity released into the extracellular part when the high K^+ concentration solution is added in the presence and absence of each drug to be tested.
Method for Measuring BEC 1 Inhibitory Activity of Compounds Using Released Amount of ^86Rb ions as the Index
The channel activity of BEC 1 was measured in accordance with the method described in WO 99/37677, using amount of a radioisotope ^86Rb ion released from a BEC 1-expressing cell as the index. That is, when an ^86Rb ion-incorporated BEC 1-expressing cell was stimulated with 100 mM KCl, the radioactivity released from the cell was used as the channel activity of BEC 1. The ^86Rb ions were incorporated into a BEC 1-stably expressing cell by culturing the cell (3 hours, 37° C.) in the presence of ^86RbCl (0.5 μCi/ml), and the un-incorporated ^86Rb ions were removed by washing three times with HEPES-buffered saline (pH 7.4, 2.5 mM KCl). The cells were incubated with HEPES-buffered saline containing a compound to be tested at room temperature for 15 minutes and then further incubated with 100 mM KCl-containing HEPES-buffered saline (pH 7.4) containing the compound to be tested at room temperature for 5 minutes. The extracellular medium was recovered, and then the remaining cells were lysed with 0.1 N NaOH and recovered.
The Cerenkov radioactivity of the extracellular medium and cell lysate was respectively measured, and their total was used as the total radioactivity. The released amount of ^86Rb ions was expressed by the percentage of extracellular medium radioactivity based on the total radioactivity. The value obtained in the presence of the compound was used as a test value, and the value obtained in the absence of the compound as a control value and the value obtained when not stimulated with 100 mM KCl as a blank value. Inhibitory action of each compound was expressed by % inhibition, namely (control value−test value)×100/(control value−blank value), or by an IC50 value calculated from the % inhibition. As the test results of typical compounds are shown in the following Tables 2 and 3, it was confirmed that said compounds have the BEC 1 potassium channel inhibitory action.
In this connection, as the BEC 1-expressing cell, a BEC 1-stably expressing cell prepared in accordance with the method described in WO 99/37677 using a dihydrofolate reductase (dhfr)-deficient strain of a Chinese hamster ovary cell was used.

The test system of data set [2] is ECS-induced amnesia. Kind of data set: Electroconvulsive shock (ECS)-induced amnesia, mouse passive avoidance task. Format: in vivo. On the procedure: Electricity Chorea Shock (ECS)-Induced Learning Disorder (Mouse Passive Evasion Reaction Test) The evaluation was carried out in the following manner with reference to a report (Eur. J. Pharmacology, 321; 273-278, 1997). Animals; Male ddy mice (SLC, five weeks of age at the time of the training) were used. Arranged into 31 or 32 animals per group. A compound to be evaluated was suspended in a solution prepared by dissolving methyl cellulose in physiological saline to a concentration of 0.5% (hereinafter, 0.5% methyl cellulose solution). The administration volume was set to 10 ml per 1 kg body weight. As a placebo of the compound to be evaluated, 10 ml of the 0.5% methyl cellulose solution per 1 kg body weight (hereinafter, vehicle) was administered. (2) Each mouse was put into the light compartment of a passive avoidance task apparatus and allowed to stand for 30 seconds. Thereafter, the Guillotine door was opened. […] (3) A period of time until the mouse crossed a sensor in the dark compartment after opening the Guillotine door (step-through latency) was recorded. […] Effect of the compound on ECS-induced amnesia was evaluated by comparison between a step-through latency of (ECS+vehicle administration) group and a that of (ECS+evaluation compound administration) group. Data were analyzed using two-tailed steel test. […]

The structures appear in SMILES notation. pIC50: −log10 of the molar value.

In the case of `OCCCCCNc1nc(Nc2ccccc2)nc(Nc2ccccc2)n1` [compound 22], the melting point lay within 118 to 119 °C. Moreover, the pIC50 in data set [1] is 6.72.
For `CC(C)Nc1nc(Nc2ccccc2)nc(Nc2ccc(F)cc2)n1.Cl` [compound 45, N-(4-fluorophenyl)-N′-isopropyl-N″-phenyl-1,3,5-triazine-2,4,6-triamine hydrochloride], in that order: 205 to 206 °C and 6.66.
`Fc1ccc(Nc2nc(NCc3ccnc(F)c3)nc(Nc3ccccc3)n2)cc1` [Example 744]: the “minimum effective dose (step-through latency)” value in data set [2] (intraperitoneally administered, male ddy mice, test 24 hours after training) was 3 mg/kg. Also, in data set [2] (mouse passive avoidance task), the “effect on ECS-induced amnesia” value is listed as “shows the improving effect”. Moreover, the negative-log IC50 (pIC50) in data set [1] is 7.07.

The values above are taken from US7375222B2, “2,4,6-Triamino-1,3,5-triazine derivative” (Astellas Pharma Inc., priority 2002, dated 2008).
